These results are taken from PMC10461462, “A critical inter‐subunit interaction for the transmission of the allosteric signal in the Agrobacterium tumefaciens ADP‐glucose pyrophosphorylase” (Protein Science : A Publication of the Protein Society, 2023).

In one data set the target is T1, R11D (Agrobacterium tumefaciens, UniProt P39669, R11D).
T1 construct: gene glgC; His-tagged, from pBLH1/pBHL1 derivative, expressed in E. coli BL21(DE3); homotetramer
As to the kind of experiment: Thermal shift assay (SYPRO Orange) with varied ligand concentration in 50 mM HEPES pH 8.0, 0.02 mg/mL protein, 25-95 C; Tm versus log ligand concentration fitted to obtain Kd. Format: binding. As to conditions: n = 3. The procedure: (§1) We used thermal shift assays to find whether the effect of the mutation was on the ability of Fru6P/Pyr either to bind or activate the enzyme. Activators of ADP‐Glc PPase bind to the enzyme and stabilize it from thermal denaturation (Bhayani & Ballicora, [2022]).
(§2) Thermal shift assays were performed as described (Hill et al., [2019]) using the QuantStudio™ 3 Real‐Time PCR System (Thermo Fisher Scientific) and QuantStudio™ Design and Analysis Software v1.5.1. The final volume for the assay was 20 μL and contained 50 mM HEPES (pH 8.0), SYPRO Orange Dye (Sigma‐Aldrich) (4×) and 0.02 mg/mL purified protein, in the absence or presence of 5 mM Fru6P, and 5 mM Pyr. A control with no protein was also performed for all the samples. A continuous temperature increases from 25.0 to 95.0°C was scanned at a ramp increment of 0.1°C per second. Scans were run in triplicates and averaged. The unfolding temperatures (T m ) of the proteins were measured using the minimum of the third derivative of the scanned fluorescence vs. temperature (d^3F/dT^3) (Bhayani & Ballicora, [2022]).
(§3) Thermal Shift assays were used to study the relationship between the melting temperature ( Tm ) of a protein and the logarithm of the ligand concentration using the following equation (Bhayani & Ballicora, [2022]). y=Tm0+Alog101+10^x/Kd.
(§4) In this equation, y is Tm , and x is the logarithm of the ligand concentration. […] The data was fitted to an equation using Origin™ 2017 and the Levenberg–Marquardt algorithm, to find the optimum parameters Tm0 , A , and Kd (Bhayani & Ballicora, [2022]). To ensure robustness and reliability, all thermal shift assays were conducted in triplicate.

For data set [1], the target named is T2, WT (Agrobacterium tumefaciens, UniProt P39669).
T2 construct: gene glgC; His-tagged, from pBLH1/pBHL1 (pET28c derivative), expressed in E. coli BL21(DE3); homotetramer
T2 sequence (P39669 1-420): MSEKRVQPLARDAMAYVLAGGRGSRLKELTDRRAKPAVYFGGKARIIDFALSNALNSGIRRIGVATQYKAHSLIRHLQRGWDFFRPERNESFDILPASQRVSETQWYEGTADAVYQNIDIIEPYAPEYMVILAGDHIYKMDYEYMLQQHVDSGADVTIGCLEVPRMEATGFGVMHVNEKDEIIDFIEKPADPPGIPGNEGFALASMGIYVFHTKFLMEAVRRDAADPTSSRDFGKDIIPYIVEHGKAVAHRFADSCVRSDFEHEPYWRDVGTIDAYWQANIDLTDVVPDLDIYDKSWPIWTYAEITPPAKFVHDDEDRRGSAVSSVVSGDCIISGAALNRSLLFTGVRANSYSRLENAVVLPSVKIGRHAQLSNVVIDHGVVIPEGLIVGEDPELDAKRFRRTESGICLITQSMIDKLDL
The data set is described as above. The data set is classed as binding. As to conditions: n = 3. How it is done: as §1, §2, §3, §4

The subject of the next data set is T3, R11A.
T3 construct: values from literature (Gomez-Casati et al., 2001)
Description: Activator saturation of ADP-Glc synthesis (PPi converted to phosphate, Malachite Green) in 50 mM HEPES pH 7.5, 7 mM MgCl2, 1.5 mM Glc1P, 1.5 mM ATP; modified Hill fit. Format: biochemical. Also on record: method as in values quoted from other papers. Conditions: n = 2; read-out: A0.5; cited from earlier work. How it is done: (§5) This condition was considered “saturating concentrations” of substrate. To analyze the effect of the activators in “sub‐saturating concentrations” of substrate, the concentration of ATP was 0.2 mM.
(§6) Table S1 . Kinetic parameters for the activators of the A. tumefaciens ADP -Glc PPase wild type, and mutants.
(§7) a Assays were performed as described in Materials and Methods under “activator saturation assay”.
(§8) b Activation fold is calculated by dividing the maximum velocity (Vm) by the velocity in the absence of activator (V0).

The target of data set [2] is T4, D141A (Agrobacterium tumefaciens, UniProt P39669, D141A).
T4 construct: gene glgC; His-tagged, from pBLH1/pBHL1 derivative, expressed in E. coli BL21(DE3); homotetramer
Description: Activator saturation of ADP-Glc synthesis (Malachite Green) at pH 7.5 with 1.5 mM Glc1P and 4 mM ATP; modified Hill fit. The data set is classed as biochemical. As to conditions: n = 2; read-out: A0.5. The procedure: as §5
(§9) The assays were performed as described in Materials and Methods in the presence of 4 mM ATP.
(§10) (1 picture or pasted object on this page, not shown here)

Data set [3] concerns the target T5, D141N (Agrobacterium tumefaciens, UniProt P39669, D141N).
T5 construct: gene glgC; His-tagged, from pBLH1/pBHL1 derivative, expressed in E. coli BL21(DE3); homotetramer
As to the kind of experiment: Activator saturation of ADP-Glc synthesis (PPi converted to phosphate, Malachite Green) in 50 mM HEPES pH 7.5, 7 mM MgCl2, 1.5 mM Glc1P, 1.5 mM ATP; modified Hill fit. Format: biochemical. As to conditions: n = 2; read-out: A0.5. The procedure:
as §5, §6, §7, §8

The target of the next data set is T6, R11D/D141R (Agrobacterium tumefaciens, UniProt P39669, D141R/R11D).
T6 construct: gene glgC; His-tagged, from pBLH1/pBHL1 derivative, expressed in E. coli BL21(DE3); homotetramer
Described as above. Format: biochemical. As to conditions: n = 2; read-out: A0.5. How it is done: as §5, §6, §7, §8

Data set [4] deals with T4, D141A. The data set is described as above. The data set is classed as biochemical. As to conditions: n = 2; read-out: A0.5. How it is done: as §5, §6, §7, §8
The next data set deals with T7, D141E (Agrobacterium tumefaciens, UniProt P39669, D141E).
T7 construct: gene glgC; His-tagged, from pBLH1/pBHL1 derivative, expressed in E. coli BL21(DE3); homotetramer
The data set is described as above. The data set is classed as biochemical. Conditions: n = 2. The procedure:
as §5, §6, §7, §8

For data set [5], the target named is T2, WT. The data set is described as above. The data set is classed as biochemical. Conditions: n = 2; read-out: A0.5. The procedure: as §5, §6, §7, §8
In the next data set the target is T8, R11K (Agrobacterium tumefaciens, UniProt P39669, R11K).
T8 construct: gene glgC; His-tagged, from pBLH1/pBHL1 derivative, expressed in E. coli BL21(DE3); homotetramer
The data set is described as above. Format: biochemical. As to conditions: n = 2. The procedure: as §5, §6, §7, §8

For data set [6], the target named is T5, D141N. As to the kind of experiment: Effector saturation of ADP-Glc synthesis (Malachite Green) at pH 7.5 with 1.5 mM Glc1P and 4 mM ATP, effector inhibiting instead of activating; modified Hill fit. The data set is classed as biochemical. Conditions: n = 2; read-out: A0.5 (mM), footnote: I0.5. The procedure: as §5, §9, §10
Data set [7] concerns the target Agrobacterium tumefaciens ADP-glucose pyrophosphorylase double mutant R11D/D141R (Agrobacterium tumefaciens) (UniProt P39669). Description: SEC.
Data set [8] addresses Agrobacterium tumefaciens ADP-glucose pyrophosphorylase mutant D141A (Agrobacterium tumefaciens) (UniProt P39669). Description: SEC.
Data set [9] addresses Agrobacterium tumefaciens ADP-glucose pyrophosphorylase mutant D141E (Agrobacterium tumefaciens) (UniProt P39669). Description: SEC.
In data set [10] the target is Agrobacterium tumefaciens ADP-glucose pyrophosphorylase mutant D141N (Agrobacterium tumefaciens) (UniProt P39669). As to the kind of experiment: SEC.
Data set [11] deals with Agrobacterium tumefaciens ADP-glucose pyrophosphorylase mutant D141R (Agrobacterium tumefaciens) (UniProt P39669). Description: SEC.
For data set [12], the target named is Agrobacterium tumefaciens ADP-glucose pyrophosphorylase mutant R11D (Agrobacterium tumefaciens) (UniProt P39669). As to the kind of experiment: SEC.
The target of data set [13] is Agrobacterium tumefaciens ADP-glucose pyrophosphorylase mutant R11K (Agrobacterium tumefaciens) (UniProt P39669). As to the kind of experiment: SEC.
The data set “SEC” deals with the molecule itself. As to the kind of experiment: SEC.

Where two headings read alike, the source gives them in different places.

Turning to `O=P(O)(O)OC[C@H]1OC(O)(CO)[C@@H](O)[C@@H]1O` (some centres unmarked) [Fru6P, fructose 6-phosphate], the values for the Kd on R11D and at WT [1] were 1820 µM and 1510 µM, respectively. Moreover, the EC50 is 30 µM in the data set with R11A; 500 µM on D141A [2]; 2970 µM on D141N [3]; 1320 µM at R11D/D141R; 840 µM at D141A [4]; 30 µM at D141E (read-out: A0.5). The values for the EC50 on WT [5] and on R11K were 340 µM and 50 µM, respectively.
Consider `CC(=O)C(=O)O` [Pyr, pyruvate], for which the Kd was determined as 54 µM at R11D and 233 µM on WT [1]. Also, the EC50 was 49 µM at D141A [2]; 300 µM at D141A [4]; 60 µM at D141E; 450 µM at WT [5]; 40 µM at R11K. Besides, on D141N [6], the IC50 worked out at 0.075 mM.
As to “Agrobacterium tumefaciens ADP-glucose pyrophosphorylase double mutant R11D/D141R (from UniProt P39669) (enzyme)”, the stoichiometry N in [7] was found to be 4.
In data set [8], “Agrobacterium tumefaciens ADP-glucose pyrophosphorylase mutant D141A (from UniProt P39669) (enzyme)” displayed a stoichiometry N of 4.
“Agrobacterium tumefaciens ADP-glucose pyrophosphorylase mutant D141E (from UniProt P39669) (enzyme)”: the stoichiometry N in data set [9] is 4.
On to “Agrobacterium tumefaciens ADP-glucose pyrophosphorylase mutant D141N (from UniProt P39669) (enzyme)”, for which the stoichiometry N in data set [10] is 4.
In [11], “Agrobacterium tumefaciens ADP-glucose pyrophosphorylase mutant D141R (from UniProt P39669) (enzyme)” gave a stoichiometry N of 2.
As for “Agrobacterium tumefaciens ADP-glucose pyrophosphorylase mutant R11D (from UniProt P39669) (enzyme)”, the stoichiometry N in data set [12] worked out at 4.
In [13], “Agrobacterium tumefaciens ADP-glucose pyrophosphorylase mutant R11K (from UniProt P39669) (enzyme)” came in with a stoichiometry N of 4.

B1: Agrobacterium tumefaciens ADP-glucose pyrophosphorylase wild type (enzyme)
chain: MSEKRVQPLARDAMAYVLAGGRGSRLKELTDRRAKPAVYFGGKARIIDFALSNALNSGIRRIGVATQYKAHSLIRHLQRGWDFFRPERNESFDILPASQRVSETQWYEGTADAVYQNIDIIEPYAPEYMVILAGDHIYKMDYEYMLQQHVDSGADVTIGCLEVPRMEATGFGVMHVNEKDEIIDFIEKPADPPGIPGNEGFALASMGIYVFHTKFLMEAVRRDAADPTSSRDFGKDIIPYIVEHGKAVAHRFADSCVRSDFEHEPYWRDVGTIDAYWQANIDLTDVVPDLDIYDKSWPIWTYAEITPPAKFVHDDEDRRGSAVSSVVSGDCIISGAALNRSLLFTGVRANSYSRLENAVVLPSVKIGRHAQLSNVVIDHGVVIPEGLIVGEDPELDAKRFRRTESGICLITQSMIDKLDL
notes: ADP-glucose pyrophosphorylase (EC 2.7.7.27) of Agrobacterium tumefaciens, ~50 kDa subunit, encoded by plasmid pBHL1 (pET28c derivative) of Hill et al., 2019; also called ADP-Glc PPase; WT; source: E. coli BL21 (DE3), purified (His-Trap FF Ni2+ column, Superdex 200 gel filtration)
Take B1: in “SEC”, the “stoichiometry N” value was determined as 4.
